In patent US20220133847A1, “COMPOSITIONS AND METHODS FOR ALLEVIATING PAIN” (priority 2020, published 2022):
Ends that are not written are not given here.

Tests used:
Cav3.3 = target: T1, Cav3.3 (Mus musculus, UniProt E9Q7P2); experiment: Western blot of Cav3.3 protein levels in whole trigeminal ganglia lysates after peptide injection; assay type: in vivo; settings: FRICT-ION mice, whole TG lysates, four hours post injection, normalized to actin
T1 construct: Western blot analysis of Cav3.3 protein levels from whole TG lysates was performed; from tissue; host or cells: mouse trigeminal ganglia (FRICT-ION model)
T1 sequence (E9Q7P2 1-2199): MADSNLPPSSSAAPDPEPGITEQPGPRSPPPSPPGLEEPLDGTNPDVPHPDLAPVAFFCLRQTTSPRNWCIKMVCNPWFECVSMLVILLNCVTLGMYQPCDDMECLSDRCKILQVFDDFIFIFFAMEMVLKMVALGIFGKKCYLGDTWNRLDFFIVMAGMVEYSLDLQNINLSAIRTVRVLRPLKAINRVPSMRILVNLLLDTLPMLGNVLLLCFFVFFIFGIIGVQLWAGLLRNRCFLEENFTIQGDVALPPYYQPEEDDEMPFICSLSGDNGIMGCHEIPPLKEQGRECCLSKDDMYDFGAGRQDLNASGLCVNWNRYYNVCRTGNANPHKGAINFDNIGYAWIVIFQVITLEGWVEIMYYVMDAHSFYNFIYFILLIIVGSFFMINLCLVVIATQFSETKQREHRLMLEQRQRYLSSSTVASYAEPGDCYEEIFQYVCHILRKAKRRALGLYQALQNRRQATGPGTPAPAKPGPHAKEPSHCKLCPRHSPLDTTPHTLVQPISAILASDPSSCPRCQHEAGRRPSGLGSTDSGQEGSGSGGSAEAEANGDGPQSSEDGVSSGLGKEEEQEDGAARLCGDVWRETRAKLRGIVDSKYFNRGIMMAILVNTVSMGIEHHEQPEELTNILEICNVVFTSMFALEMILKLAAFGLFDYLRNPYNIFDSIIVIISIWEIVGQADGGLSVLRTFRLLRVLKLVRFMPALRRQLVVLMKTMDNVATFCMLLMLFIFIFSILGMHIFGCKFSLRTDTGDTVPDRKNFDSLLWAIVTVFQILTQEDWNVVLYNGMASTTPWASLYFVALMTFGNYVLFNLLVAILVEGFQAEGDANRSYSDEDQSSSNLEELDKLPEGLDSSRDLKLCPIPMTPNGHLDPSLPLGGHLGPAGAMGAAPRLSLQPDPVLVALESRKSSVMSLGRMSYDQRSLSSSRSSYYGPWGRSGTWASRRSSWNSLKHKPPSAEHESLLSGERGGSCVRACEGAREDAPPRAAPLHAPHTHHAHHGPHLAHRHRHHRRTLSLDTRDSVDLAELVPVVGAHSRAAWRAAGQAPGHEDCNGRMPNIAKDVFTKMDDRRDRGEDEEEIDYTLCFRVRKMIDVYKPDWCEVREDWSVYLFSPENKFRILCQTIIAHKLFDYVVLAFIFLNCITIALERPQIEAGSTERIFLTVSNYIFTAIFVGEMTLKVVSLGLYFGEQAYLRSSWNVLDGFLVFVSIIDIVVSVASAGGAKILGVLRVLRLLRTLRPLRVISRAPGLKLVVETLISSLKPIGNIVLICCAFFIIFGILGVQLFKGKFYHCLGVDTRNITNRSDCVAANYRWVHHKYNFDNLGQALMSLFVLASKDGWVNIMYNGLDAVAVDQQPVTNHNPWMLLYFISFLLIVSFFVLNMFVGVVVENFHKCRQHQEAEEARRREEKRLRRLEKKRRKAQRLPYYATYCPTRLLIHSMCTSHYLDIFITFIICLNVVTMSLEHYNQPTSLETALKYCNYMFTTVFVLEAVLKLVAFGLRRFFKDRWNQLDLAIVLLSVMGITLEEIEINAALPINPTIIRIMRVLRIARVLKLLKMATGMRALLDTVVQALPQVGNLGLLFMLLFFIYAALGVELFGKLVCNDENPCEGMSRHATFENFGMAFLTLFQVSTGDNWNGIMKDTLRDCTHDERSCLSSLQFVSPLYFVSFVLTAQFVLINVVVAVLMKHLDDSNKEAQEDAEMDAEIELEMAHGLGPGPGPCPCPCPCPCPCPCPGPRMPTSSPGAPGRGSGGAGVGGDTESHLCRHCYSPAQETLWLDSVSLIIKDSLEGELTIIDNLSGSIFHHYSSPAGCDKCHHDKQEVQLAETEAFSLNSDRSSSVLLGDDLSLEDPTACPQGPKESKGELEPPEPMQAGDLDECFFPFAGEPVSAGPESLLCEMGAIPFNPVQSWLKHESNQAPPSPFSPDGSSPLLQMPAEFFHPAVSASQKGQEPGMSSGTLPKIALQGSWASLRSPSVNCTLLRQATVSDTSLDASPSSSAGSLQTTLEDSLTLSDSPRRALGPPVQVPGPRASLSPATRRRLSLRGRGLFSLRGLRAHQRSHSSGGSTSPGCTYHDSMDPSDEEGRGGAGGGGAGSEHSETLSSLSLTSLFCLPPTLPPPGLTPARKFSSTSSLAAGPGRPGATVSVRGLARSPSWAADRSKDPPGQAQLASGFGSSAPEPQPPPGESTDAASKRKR
Procedure: Twelve male and female mice (8-10 weeks old, six mice per sex) were subject to the FRICT-ION model of trigeminal neuropathic pain. Three mice of each sex were administered TAT-C3P peptide (SEQ ID NO:1) and the remaining mice were administered TAT-C3D (SEQ ID NO:2) following the methods described above. Four hours post injection, mice were euthanized with pentobarbital (50 mg/kg) and both ipsilateral and contralateral trigeminal ganglia (TG) were removed. TG were washed immediately in PBS and stored at −80° C.
The TG for each of the four groups were pooled together (n=3) for protein extraction and homogenized using a pestle and 500 μL of 1×RIPA buffer (Thermo Fisher Scientific, Inc., Waltham, Mass.). Samples were put on a rocking shaker for two hours and then centrifuged, and supernatant removed to a new tube. Samples were assayed for total protein. […] Samples were then prepared for electrophoresis by mixing with 2× sample buffer and boiling for five minutes at 100° C. for denaturation.
Proteins were loaded on a 12% Tris-Glycine polyacrylamide gradient gel (Bio-Rad Laboratories, Inc., Hercules, Calif.) and transferred to a PVDF membrane (MilliporeSigma, Burlington, Mass.). […] Signal intensity was analyzed using ImageJ (Schneider et al., Nature Methods 9:671-675 (2012)) for comparisons.
Male and female mice were analyzed separately. […]

Cav3.3 channels = Cav3.3 channels (Homo sapiens, UniProt Q9P0X4); settings: cited from earlier work
Cav3.3 channels, sequence (Q9P0X4 whole entry): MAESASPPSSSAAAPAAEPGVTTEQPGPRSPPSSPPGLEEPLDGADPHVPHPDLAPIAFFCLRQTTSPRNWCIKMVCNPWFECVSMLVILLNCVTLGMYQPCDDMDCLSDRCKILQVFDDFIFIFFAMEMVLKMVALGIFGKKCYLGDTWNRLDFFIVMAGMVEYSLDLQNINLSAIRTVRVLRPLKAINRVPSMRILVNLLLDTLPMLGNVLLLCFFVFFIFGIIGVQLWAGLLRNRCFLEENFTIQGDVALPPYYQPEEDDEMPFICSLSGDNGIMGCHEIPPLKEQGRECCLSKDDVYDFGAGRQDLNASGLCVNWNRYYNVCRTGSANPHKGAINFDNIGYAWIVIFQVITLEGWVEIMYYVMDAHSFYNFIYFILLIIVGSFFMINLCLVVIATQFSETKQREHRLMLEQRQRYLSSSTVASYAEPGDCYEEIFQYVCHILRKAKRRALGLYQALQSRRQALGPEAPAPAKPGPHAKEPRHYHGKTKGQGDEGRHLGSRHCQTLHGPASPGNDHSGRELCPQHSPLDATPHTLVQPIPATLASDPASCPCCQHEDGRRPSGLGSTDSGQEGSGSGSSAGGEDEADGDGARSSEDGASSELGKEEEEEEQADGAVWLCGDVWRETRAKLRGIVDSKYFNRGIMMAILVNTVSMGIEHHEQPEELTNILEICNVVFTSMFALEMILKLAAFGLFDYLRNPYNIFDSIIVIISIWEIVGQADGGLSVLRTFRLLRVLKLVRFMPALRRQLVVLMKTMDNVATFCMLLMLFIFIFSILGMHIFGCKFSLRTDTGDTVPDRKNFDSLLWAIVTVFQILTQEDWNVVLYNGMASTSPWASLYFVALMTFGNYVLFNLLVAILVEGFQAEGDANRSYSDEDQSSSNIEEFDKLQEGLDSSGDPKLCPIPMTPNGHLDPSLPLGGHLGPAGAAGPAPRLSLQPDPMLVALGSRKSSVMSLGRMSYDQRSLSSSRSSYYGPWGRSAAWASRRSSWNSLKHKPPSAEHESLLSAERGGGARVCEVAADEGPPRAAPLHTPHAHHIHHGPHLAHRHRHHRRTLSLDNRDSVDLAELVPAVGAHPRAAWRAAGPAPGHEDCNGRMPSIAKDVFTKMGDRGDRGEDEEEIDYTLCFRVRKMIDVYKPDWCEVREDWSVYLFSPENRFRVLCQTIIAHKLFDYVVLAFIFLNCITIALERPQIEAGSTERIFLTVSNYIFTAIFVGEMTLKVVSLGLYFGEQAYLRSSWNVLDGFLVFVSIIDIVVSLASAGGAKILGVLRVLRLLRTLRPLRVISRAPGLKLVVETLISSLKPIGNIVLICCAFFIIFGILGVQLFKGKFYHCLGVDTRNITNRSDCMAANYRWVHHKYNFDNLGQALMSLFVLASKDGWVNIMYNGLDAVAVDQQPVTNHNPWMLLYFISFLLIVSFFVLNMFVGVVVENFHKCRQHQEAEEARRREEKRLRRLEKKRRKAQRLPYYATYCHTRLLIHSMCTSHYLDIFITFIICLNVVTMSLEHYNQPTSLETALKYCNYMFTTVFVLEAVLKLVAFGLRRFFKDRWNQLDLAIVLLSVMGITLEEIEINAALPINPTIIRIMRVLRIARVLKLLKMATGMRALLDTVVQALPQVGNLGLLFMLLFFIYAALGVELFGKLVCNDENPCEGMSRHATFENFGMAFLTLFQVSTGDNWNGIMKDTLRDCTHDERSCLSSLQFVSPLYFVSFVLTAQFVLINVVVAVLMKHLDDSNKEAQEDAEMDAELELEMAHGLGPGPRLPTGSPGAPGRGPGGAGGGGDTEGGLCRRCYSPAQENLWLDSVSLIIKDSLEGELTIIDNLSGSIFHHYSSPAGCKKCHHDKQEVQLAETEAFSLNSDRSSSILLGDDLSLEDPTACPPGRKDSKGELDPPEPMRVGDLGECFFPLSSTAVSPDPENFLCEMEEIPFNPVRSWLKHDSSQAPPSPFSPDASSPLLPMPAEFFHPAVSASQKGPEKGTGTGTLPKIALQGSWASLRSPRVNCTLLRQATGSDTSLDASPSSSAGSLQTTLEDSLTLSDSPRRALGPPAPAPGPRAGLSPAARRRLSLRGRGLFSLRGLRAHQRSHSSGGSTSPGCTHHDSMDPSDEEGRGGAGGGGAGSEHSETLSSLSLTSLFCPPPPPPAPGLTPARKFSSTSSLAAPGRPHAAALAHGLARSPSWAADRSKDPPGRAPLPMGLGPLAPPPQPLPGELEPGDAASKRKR

[1] = Method: FIG. 5. […] Animals were sacrificed, and tissues were harvested four hours post-injection.
A His-tagging method was used to assess the brain-penetrance of peptide therapeutics (Westlund et al., 2021, Neurobiol Pain 10:100067). Briefly, a His-tagged TAT-C3P peptide with the sequence […] (SEQ ID NO: 3) was ordered from Genscript. Protein content was assessed with Western blots using standard methods. Briefly, the sample protein was denatured, followed by gel electrophoresis to separate proteins by molecular weight. An anti-His-tag monoclonal antibody (C-terminal A01857, GenScript) that binds to the His-tag conjugated to the TAT-C3P peptide or anti-β-actin antibody (ab8226, Abcam, Cambridge, United Kingdom) was applied to the electrophoresis membrane. After washing off the antibody, specific secondary antibodies were added which recognized and bound to the primary antibodies. The secondary antibody was visualized through immunofluorescence probe attached to the secondary antibody, allowing indirect detection, validation, and semi-quantitative assessment of the specific target protein.

[2] = in vivo
T-type Ca2+ channels = settings: patients; cited from earlier work

TAT-C3D: control peptide that does not block Cav3.3 channels, GRKKRRQRRRPQAVSSPARSGEPLHALSPRGTARSP (GRKKRRQRRRPQAVSSPARSGEPLHALSPRGTARSP; unkown; TAT-C3D (1)..(36))
Cav3.3 protein levels in the trigeminal ganglia (Cav3.3): strongly present
inhibition of Cav3.3 (Cav3.3 channels): does not inhibit Cav3.3

GRKKRRQRRRPQEESNKEAREDAELDAEIELEMAQGHHHHHH [His-tagged TAT-C3P]
His-tag bands in TG and medullary tissues ([1]; male FRICT-ION mice, tissues harvested four hours post-injection): Bands were detected

GRKKRRQRRRPQEESNKEAREDAELDAEIELEMAQG [TAT-C3P]
CNS penetration following intraperitoneal injection ([1]; FRICT-ION mice): penetrates the central nervous system
side effects [2]: no major side effects

CCC1(C)CC(=O)NC1=O (stereo not drawn) [ethosuximide]
outcome of clinical trial for neuropathic pain (T-type Ca2+ channels): halted due to adverse events
